# Assay results reported in ChEMBL document CHEMBL1155237, “Selective inhibitors of the mutant B-Raf pathway: discovery of a potent and orally bioavailable aminoisoquinoline” (J Med Chem, 2009).
# Legend:
# [1] = target: Serine/threonine-protein kinase PAK 2 (Homo sapiens) (UniProt Q13177); test: Inhibition of PAK2 assessed as enzyme activity at 1 uM relative to untreated control; parameters: scale not given: the % may be the effect or the level left
# [2] = Oral bioavailability in CD1 mouse; format: ADME, organism-based; settings: in vivo
# [3] = target: Dual specificity protein kinase CLK2 (Homo sapiens) (UniProt P49760); test: Inhibition of CLK2 assessed as enzyme activity at 1 uM relative to untreated control; parameters: scale not given: the % may be the effect or the level left
# [4] = target: Discoidin domain-containing receptor 2 (Homo sapiens) (UniProt Q16832); test: Inhibition of DDR2 assessed as enzyme activity at 1 uM relative to untreated control; parameters: scale not given: the % may be the effect or the level left
# [5] = target: Ribosomal protein S6 kinase alpha-6 (Homo sapiens) (UniProt Q9UK32); test: Inhibition of RPS6KA6 kinase domain 2 assessed as enzyme activity at 1 uM relative to untreated control; parameters: scale not given: the % may be the effect or the level left
# [6] = target: Serine/threonine-protein kinase ULK3 (Homo sapiens) (UniProt Q6PHR2); test: Inhibition of ULK3 assessed as enzyme activity at 1 uM relative to untreated control; parameters: scale not given: the % may be the effect or the level left
# [7] = target: Serine/threonine-protein kinase DCLK1 (Homo sapiens) (UniProt O15075); test: Inhibition of DCAMKL1 assessed as enzyme activity at 1 uM relative to untreated control; parameters: scale not given: the % may be the effect or the level left
# [8] = target: Serine/threonine-protein kinase MARK2 (Homo sapiens) (UniProt Q7KZI7); test: Inhibition of MARK2 assessed as enzyme activity at 1 uM relative to untreated control; parameters: scale not given: the % may be the effect or the level left
# [9] = target: RAC-beta serine/threonine-protein kinase (Homo sapiens) (UniProt P31751); test: Inhibition of AKT2 assessed as enzyme activity at 1 uM relative to untreated control; parameters: scale not given: the % may be the effect or the level left
# [10] = target: Serine/threonine-protein kinase 17A (Homo sapiens) (UniProt Q9UEE5); test: Inhibition of DRAK1 assessed as enzyme activity at 1 uM relative to untreated control; parameters: scale not given: the % may be the effect or the level left
# [11] = target: Serine/threonine-protein kinase 4 (Homo sapiens) (UniProt Q13043); test: Inhibition of MST1 assessed as enzyme activity at 1 uM relative to untreated control; parameters: scale not given: the % may be the effect or the level left
# [12] = target: Serine/threonine-protein kinase DCLK2 (Homo sapiens) (UniProt Q8N568); test: Inhibition of DCAMKL2 assessed as enzyme activity at 1 uM relative to untreated control; parameters: scale not given: the % may be the effect or the level left
# [13] = target: Membrane-associated tyrosine- and threonine-specific cdc2-inhibitory kinase (Homo sapiens) (UniProt Q99640); test: Inhibition of PKMYT1 assessed as enzyme activity at 1 uM relative to untreated control; parameters: scale not given: the % may be the effect or the level left
# [14] = target: Serine/threonine-protein kinase 25 (Homo sapiens) (UniProt O00506); test: Inhibition of YSK1 assessed as enzyme activity at 1 uM relative to untreated control; parameters: scale not given: the % may be the effect or the level left
# [15] = target: Phosphorylase b kinase gamma catalytic chain, skeletal muscle/heart isoform (Homo sapiens) (UniProt Q16816); test: Inhibition of PHKG1 assessed as enzyme activity at 1 uM relative to untreated control; parameters: scale not given: the % may be the effect or the level left
# [16] = system: Phosphatidylinositol 4,5-bisphosphate 3-kinase catalytic subunit alpha isoform (Homo sapiens), P42336 [E545K]; test: Inhibition of PIK3CA E545K mutant assessed as enzyme activity at 1 uM relative to untreated control; parameters: scale not given: the % may be the effect or the level left
# [17] = target: Serine/threonine-protein kinase tousled-like 1 (Homo sapiens) (UniProt Q9UKI8); test: Inhibition of TLK1 assessed as enzyme activity at 1 uM relative to untreated control; parameters: scale not given: the % may be the effect or the level left
# [18] = target: Serine/threonine-protein kinase 16 (Homo sapiens) (UniProt O75716); test: Inhibition of STK16 assessed as enzyme activity at 1 uM relative to untreated control; parameters: scale not given: the % may be the effect or the level left
# [19] = target: Calcium/calmodulin-dependent protein kinase type II subunit gamma (Homo sapiens) (UniProt Q13555); test: Inhibition of CAMK2G assessed as enzyme activity at 1 uM relative to untreated control; parameters: scale not given: the % may be the effect or the level left
# [20] = target: High affinity nerve growth factor receptor (Homo sapiens) (UniProt P04629); test: Inhibition of TRKA assessed as enzyme activity at 1 uM relative to untreated control; parameters: scale not given: the % may be the effect or the level left
# [21] = target: Calcium/calmodulin-dependent protein kinase type II subunit alpha (Homo sapiens) (UniProt Q9UQM7); test: Inhibition of CAMK2A assessed as enzyme activity at 1 uM relative to untreated control; parameters: scale not given: the % may be the effect or the level left
# [22] = target: Cyclin-G-associated kinase (Homo sapiens) (UniProt O14976); test: Inhibition of GAK assessed as enzyme activity at 1 uM relative to untreated control; parameters: scale not given: the % may be the effect or the level left
# [23] = target: Serine/threonine-protein kinase 17B (Homo sapiens) (UniProt O94768); test: Inhibition of DRAK2 assessed as enzyme activity at 1 uM relative to untreated control; parameters: scale not given: the % may be the effect or the level left
# [24] = target: Serine/threonine-protein kinase 33 (Homo sapiens) (UniProt Q9BYT3); test: Inhibition of STK33 assessed as enzyme activity at 1 uM relative to untreated control; parameters: scale not given: the % may be the effect or the level left
# [25] = target: Serine/threonine-protein kinase PLK3 (Homo sapiens) (UniProt Q9H4B4); test: Inhibition of PLK3 assessed as enzyme activity at 1 uM relative to untreated control; parameters: scale not given: the % may be the effect or the level left
# [26] = target: Cyclin-dependent kinase 19 (Homo sapiens) (UniProt Q9BWU1); test: Inhibition of CDK11 assessed as enzyme activity at 1 uM relative to untreated control; parameters: scale not given: the % may be the effect or the level left
# [27] = target: Serine/threonine-protein kinase Chk2 (Homo sapiens) (UniProt O96017); test: Inhibition of CHEK2 assessed as enzyme activity at 1 uM relative to untreated control; parameters: scale not given: the % may be the effect or the level left
# [28] = system: Mus musculus; test: Inhibition of ERK phosphorylation in human A375 SQ2 cells xenografted CD1 mouse at 5 mg/kg, po qd after 6 hrs; format: functional; settings: CD1, A375-SQ2, 6 h
# [29] = target: Ribosomal protein S6 kinase alpha-4 (Homo sapiens) (UniProt O75676); test: Inhibition of RPS6KA4 kinase domain 2 assessed as enzyme activity at 1 uM relative to untreated control; parameters: scale not given: the % may be the effect or the level left
# [30] = target: Ephrin type-A receptor 4 (Homo sapiens) (UniProt P54764); test: Inhibition of EPHA4 assessed as enzyme activity at 1 uM relative to untreated control; parameters: scale not given: the % may be the effect or the level left
# [31] = target: Tyrosine-protein kinase Blk (Homo sapiens) (UniProt P51451); test: Inhibition of BLK assessed as enzyme activity at 1 uM relative to untreated control; parameters: scale not given: the % may be the effect or the level left
# [32] = target: Proto-oncogene tyrosine-protein kinase Src (Homo sapiens) (UniProt P12931); test: Inhibition of SRC assessed as enzyme activity at 1 uM relative to untreated control; parameters: scale not given: the % may be the effect or the level left
# [33] = target: Inhibitor of nuclear factor kappa-B kinase subunit alpha (Homo sapiens) (UniProt O15111); test: Inhibition of IKK-alpha assessed as enzyme activity at 1 uM relative to untreated control; parameters: scale not given: the % may be the effect or the level left
# [34] = target: NUAK family SNF1-like kinase 1 (Homo sapiens) (UniProt O60285); test: Inhibition of ARK5 assessed as enzyme activity at 1 uM relative to untreated control; parameters: scale not given: the % may be the effect or the level left
# [35] = target: Tyrosine-protein kinase SYK (Homo sapiens) (UniProt P43405); test: Inhibition of SYK assessed as enzyme activity at 1 uM relative to untreated control; parameters: scale not given: the % may be the effect or the level left
# [36] = target: Tyrosine-protein kinase Mer (Homo sapiens) (UniProt Q12866); test: Inhibition of MERTK assessed as enzyme activity at 1 uM relative to untreated control; parameters: scale not given: the % may be the effect or the level left
# [37] = target: Serine/threonine-protein kinase 24 (Homo sapiens) (UniProt Q9Y6E0); test: Inhibition of MST3 assessed as enzyme activity at 1 uM relative to untreated control; parameters: scale not given: the % may be the effect or the level left
# Chain of Serine/threonine-protein kinase DCLK1 (Homo sapiens) (O15075 whole entry): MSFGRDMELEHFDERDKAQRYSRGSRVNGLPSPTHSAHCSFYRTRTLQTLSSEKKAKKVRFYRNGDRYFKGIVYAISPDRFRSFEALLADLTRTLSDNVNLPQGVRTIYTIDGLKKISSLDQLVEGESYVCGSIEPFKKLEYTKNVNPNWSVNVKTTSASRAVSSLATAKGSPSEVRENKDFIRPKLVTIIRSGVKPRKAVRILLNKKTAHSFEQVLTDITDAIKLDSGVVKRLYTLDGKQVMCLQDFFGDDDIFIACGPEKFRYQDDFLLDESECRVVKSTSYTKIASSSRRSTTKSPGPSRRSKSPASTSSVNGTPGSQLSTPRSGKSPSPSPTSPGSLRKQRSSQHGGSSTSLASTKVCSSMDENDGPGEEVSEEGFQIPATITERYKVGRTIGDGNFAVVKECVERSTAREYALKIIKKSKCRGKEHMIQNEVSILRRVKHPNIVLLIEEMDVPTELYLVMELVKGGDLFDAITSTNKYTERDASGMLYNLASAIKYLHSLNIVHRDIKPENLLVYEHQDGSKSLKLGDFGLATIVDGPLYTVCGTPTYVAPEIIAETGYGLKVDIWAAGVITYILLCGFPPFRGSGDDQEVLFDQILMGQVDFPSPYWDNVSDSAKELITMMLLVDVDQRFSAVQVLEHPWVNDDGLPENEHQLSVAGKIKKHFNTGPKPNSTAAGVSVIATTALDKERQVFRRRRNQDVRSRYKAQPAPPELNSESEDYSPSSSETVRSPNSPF
# Chain of Serine/threonine-protein kinase 4 (Homo sapiens) (Q13043 whole entry): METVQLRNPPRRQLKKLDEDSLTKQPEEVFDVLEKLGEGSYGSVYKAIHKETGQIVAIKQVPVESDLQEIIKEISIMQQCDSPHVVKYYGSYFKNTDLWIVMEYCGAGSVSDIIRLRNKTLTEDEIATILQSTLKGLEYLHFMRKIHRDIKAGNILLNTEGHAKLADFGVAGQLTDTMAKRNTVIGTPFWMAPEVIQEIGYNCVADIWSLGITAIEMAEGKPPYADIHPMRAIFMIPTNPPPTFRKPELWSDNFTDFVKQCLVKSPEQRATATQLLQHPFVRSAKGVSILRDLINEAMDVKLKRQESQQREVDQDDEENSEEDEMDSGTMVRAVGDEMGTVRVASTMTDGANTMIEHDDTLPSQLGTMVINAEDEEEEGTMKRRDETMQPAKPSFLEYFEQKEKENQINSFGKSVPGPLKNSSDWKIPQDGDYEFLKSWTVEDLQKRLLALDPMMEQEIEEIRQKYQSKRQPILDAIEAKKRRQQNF
# Chain of Serine/threonine-protein kinase DCLK2 (Homo sapiens) (Q8N568 whole entry): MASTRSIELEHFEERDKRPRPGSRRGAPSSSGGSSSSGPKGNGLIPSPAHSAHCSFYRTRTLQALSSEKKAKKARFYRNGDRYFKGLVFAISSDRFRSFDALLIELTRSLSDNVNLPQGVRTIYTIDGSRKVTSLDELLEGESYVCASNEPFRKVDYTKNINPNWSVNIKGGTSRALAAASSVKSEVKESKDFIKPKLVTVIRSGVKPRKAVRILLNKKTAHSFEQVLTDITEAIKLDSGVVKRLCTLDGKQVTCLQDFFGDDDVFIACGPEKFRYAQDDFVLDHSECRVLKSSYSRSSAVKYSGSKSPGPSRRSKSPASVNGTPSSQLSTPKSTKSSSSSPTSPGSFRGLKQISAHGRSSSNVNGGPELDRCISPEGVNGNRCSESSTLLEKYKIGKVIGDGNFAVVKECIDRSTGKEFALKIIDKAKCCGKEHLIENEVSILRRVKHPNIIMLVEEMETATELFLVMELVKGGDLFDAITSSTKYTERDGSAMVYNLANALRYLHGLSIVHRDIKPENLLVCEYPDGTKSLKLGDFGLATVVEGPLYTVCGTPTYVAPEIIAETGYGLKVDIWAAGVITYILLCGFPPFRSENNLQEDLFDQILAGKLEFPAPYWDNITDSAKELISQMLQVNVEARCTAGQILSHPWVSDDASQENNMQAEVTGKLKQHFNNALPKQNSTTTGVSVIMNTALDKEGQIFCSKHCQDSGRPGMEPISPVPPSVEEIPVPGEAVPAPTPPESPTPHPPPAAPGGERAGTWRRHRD
# Chain of Serine/threonine-protein kinase Chk2 (Homo sapiens) (O96017 whole entry): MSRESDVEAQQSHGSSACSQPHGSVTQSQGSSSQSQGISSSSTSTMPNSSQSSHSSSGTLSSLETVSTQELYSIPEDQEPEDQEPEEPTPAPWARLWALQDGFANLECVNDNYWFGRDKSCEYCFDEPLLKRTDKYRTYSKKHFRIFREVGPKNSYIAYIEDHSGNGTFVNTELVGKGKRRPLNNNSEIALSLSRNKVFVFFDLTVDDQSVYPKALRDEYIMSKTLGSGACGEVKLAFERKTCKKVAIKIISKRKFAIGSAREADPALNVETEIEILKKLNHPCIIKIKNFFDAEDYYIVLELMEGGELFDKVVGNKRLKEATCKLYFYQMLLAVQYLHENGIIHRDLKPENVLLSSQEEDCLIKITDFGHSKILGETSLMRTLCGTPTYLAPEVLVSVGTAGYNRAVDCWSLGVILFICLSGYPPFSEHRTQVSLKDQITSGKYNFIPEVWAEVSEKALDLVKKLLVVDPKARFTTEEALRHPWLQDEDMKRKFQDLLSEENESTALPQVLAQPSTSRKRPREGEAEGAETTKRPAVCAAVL
# Chain of Phosphatidylinositol 4,5-bisphosphate 3-kinase catalytic subunit alpha isoform (Homo sapiens), P42336 [E545K] (P42336 whole entry E545K, canonical isoform): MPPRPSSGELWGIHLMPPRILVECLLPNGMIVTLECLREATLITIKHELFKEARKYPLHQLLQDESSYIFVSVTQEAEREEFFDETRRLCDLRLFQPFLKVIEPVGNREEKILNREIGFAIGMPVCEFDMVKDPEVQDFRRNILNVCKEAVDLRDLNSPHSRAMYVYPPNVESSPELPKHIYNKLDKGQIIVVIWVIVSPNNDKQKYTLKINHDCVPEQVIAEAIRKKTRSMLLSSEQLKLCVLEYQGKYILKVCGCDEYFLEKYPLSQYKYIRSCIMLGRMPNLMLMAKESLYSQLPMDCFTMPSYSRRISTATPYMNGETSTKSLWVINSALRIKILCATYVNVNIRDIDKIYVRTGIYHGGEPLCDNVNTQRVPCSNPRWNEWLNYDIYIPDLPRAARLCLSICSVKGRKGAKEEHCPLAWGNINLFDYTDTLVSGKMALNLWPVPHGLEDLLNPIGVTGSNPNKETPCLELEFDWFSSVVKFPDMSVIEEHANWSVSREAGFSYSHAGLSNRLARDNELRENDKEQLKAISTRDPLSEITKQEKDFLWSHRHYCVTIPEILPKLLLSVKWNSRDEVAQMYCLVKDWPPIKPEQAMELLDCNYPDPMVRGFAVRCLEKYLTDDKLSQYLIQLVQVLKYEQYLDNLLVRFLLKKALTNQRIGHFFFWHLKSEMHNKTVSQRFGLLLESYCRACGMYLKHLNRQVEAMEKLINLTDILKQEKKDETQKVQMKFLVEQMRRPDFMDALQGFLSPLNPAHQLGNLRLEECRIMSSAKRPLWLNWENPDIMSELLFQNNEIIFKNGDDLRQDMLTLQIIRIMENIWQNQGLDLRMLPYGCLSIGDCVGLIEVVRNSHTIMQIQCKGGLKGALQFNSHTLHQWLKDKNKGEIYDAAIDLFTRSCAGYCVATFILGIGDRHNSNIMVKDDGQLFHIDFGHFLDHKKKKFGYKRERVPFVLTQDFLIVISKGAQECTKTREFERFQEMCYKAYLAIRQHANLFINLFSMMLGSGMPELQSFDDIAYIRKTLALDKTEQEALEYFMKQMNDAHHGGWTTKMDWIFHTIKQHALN
# Chain of Membrane-associated tyrosine- and threonine-specific cdc2-inhibitory kinase (Homo sapiens) (Q99640 whole entry): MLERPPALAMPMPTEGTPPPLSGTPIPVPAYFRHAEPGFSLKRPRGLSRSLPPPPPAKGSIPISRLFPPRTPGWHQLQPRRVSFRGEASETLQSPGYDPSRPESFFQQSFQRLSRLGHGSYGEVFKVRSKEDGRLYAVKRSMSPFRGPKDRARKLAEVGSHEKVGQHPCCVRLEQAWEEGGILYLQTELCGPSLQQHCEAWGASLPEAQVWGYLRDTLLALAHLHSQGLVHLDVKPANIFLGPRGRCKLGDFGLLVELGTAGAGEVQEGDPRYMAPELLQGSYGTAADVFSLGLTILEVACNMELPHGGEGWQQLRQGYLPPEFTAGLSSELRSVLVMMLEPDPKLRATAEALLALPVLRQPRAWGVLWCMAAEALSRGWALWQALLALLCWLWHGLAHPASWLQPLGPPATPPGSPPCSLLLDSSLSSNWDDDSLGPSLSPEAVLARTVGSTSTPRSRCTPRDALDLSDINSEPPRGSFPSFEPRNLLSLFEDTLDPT
# Chain of Serine/threonine-protein kinase ULK3 (Homo sapiens) (Q6PHR2 whole entry): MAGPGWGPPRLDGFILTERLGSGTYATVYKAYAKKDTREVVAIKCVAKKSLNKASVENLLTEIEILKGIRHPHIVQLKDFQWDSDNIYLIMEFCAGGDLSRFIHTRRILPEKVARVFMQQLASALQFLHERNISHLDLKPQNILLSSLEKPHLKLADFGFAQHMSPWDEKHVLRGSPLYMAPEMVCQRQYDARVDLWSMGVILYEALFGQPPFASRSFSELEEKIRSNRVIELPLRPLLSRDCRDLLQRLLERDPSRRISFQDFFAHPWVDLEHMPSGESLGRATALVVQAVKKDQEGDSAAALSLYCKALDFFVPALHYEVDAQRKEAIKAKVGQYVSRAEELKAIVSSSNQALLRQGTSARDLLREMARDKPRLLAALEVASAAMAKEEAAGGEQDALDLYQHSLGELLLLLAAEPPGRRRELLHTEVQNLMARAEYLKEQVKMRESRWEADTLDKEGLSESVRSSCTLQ
# Chain of Serine/threonine-protein kinase 25 (Homo sapiens) (O00506 whole entry, looked up, canonical isoform): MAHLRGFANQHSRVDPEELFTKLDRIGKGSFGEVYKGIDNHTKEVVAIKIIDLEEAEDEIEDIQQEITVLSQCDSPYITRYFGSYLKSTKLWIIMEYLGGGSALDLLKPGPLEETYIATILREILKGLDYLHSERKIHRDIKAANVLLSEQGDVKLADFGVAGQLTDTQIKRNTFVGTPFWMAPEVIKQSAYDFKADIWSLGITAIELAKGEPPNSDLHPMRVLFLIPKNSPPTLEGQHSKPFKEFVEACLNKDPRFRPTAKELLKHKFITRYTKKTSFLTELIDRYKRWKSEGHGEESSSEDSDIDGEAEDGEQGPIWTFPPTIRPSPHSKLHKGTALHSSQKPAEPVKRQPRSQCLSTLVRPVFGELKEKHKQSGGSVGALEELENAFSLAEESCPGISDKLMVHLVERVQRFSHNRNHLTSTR
structure (smiles),measurement,setting,value
Cc1ccc2c(Nc3ccc(Cl)cc3)nccc2c1Nc1ncccc1-c1ncnc2[nH]cnc12.Cl.Cl.Cl,Activity,[1],85%
same,bioavailability,[2],79%
same,Activity,[3],100%
same,Activity,[4],6.6%
same,Activity,[5],86%
same,Activity,[6],100%
same,Activity,[7],80%
same,Activity,[8],100%
same,Activity,[9],88%
same,Activity,[10],100%
same,Activity,[11],88%
same,Activity,[12],100%
same,Activity,[13],85%
same,Activity,[14],100%
same,Activity,[15],99%
same,Activity,[16],100%
same,Activity,[17],83%
same,Activity,[18],100%
same,Activity,[19],98%
same,Activity,[20],15%
same,Activity,[21],100%
same,Activity,[22],92%
same,Activity,[23],96%
same,Activity,[24],100%
same,Activity,[25],98%
same,Activity,[26],100%
same,Activity,[27],100%
same,inhibition in vivo at 5 mg/kg,[28],77%
same,Activity,[29],89%
same,Activity,[30],22%
same,Activity,[31],75%
same,Activity,[32],73%
same,Activity,[33],100%
same,Activity,[34],100%
same,Activity,[35],86%
same,Activity,[36],99%
same,Activity,[37],87%
